Assay results as given in the NIST ThermoML archive (doi:10.1021/je800197t).

Experiment: xn = mol fraction of the nth substance listed
Settings: 101 kPa, Liquid

CN1CCOCC1 [N-methylmorpholine] + O
Settings | mass density [kg/m3] | viscosity [mPa·s]
293.15 K, x1 = 0.0452 | 1002.38 | 1.898
293.15 K, x1 = 0.0942 | 1005.32 | 2.577
293.15 K, x1 = 0.1267 | 1003.31 | 3.048
293.15 K, x1 = 0.1763 | 1000.27 | 3.562
293.15 K, x1 = 0.2022 | 996.93 | 3.777
293.15 K, x1 = 0.2538 | 991.88 | 4.115
293.15 K, x1 = 0.2843 | 988.53 | 4.238
293.15 K, x1 = 0.3275 | 983.61 | 4.395
293.15 K, x1 = 0.3754 | 977.87 | 4.439
293.15 K, x1 = 0.4033 | 974.29 | 4.429
293.15 K, x1 = 0.4286 | 971.29 | 4.406
293.15 K, x1 = 0.4689 | 966.09 | 4.331
293.15 K, x1 = 0.4983 | 962.76 | 4.241
293.15 K, x1 = 0.5433 | 957.25 | 4.065
293.15 K, x1 = 0.5983 | 950.09 | 3.798
293.15 K, x1 = 0.6438 | 945.88 | 3.544
293.15 K, x1 = 0.6942 | 941.06 | 3.187
293.15 K, x1 = 0.7587 | 934.53 | 2.792
293.15 K, x1 = 0.8163 | 929.89 | 2.323
293.15 K, x1 = 0.8869 | 924.9 | 1.791
293.15 K, x1 = 0.9244 | 922.59 | 1.503
293.15 K, x1 = 0.9812 | 919.88 | 1.166
303.15 K, x1 = 0.0452 | 990.98 | 1.594
303.15 K, x1 = 0.0942 | 993.65 | 2.036
303.15 K, x1 = 0.1267 | 991.58 | 2.451
303.15 K, x1 = 0.1763 | 988.46 | 2.922
303.15 K, x1 = 0.2022 | 985.14 | 3.065
303.15 K, x1 = 0.2538 | 980.12 | 3.386
303.15 K, x1 = 0.2843 | 976.81 | 3.497
303.15 K, x1 = 0.3275 | 971.96 | 3.619
303.15 K, x1 = 0.3754 | 966.31 | 3.669
303.15 K, x1 = 0.4033 | 962.77 | 3.636
303.15 K, x1 = 0.4286 | 959.83 | 3.635
303.15 K, x1 = 0.4689 | 954.72 | 3.562
303.15 K, x1 = 0.4983 | 951.45 | 3.521
303.15 K, x1 = 0.5433 | 946.05 | 3.363
303.15 K, x1 = 0.5983 | 939.74 | 3.128
303.15 K, x1 = 0.6438 | 934.89 | 2.878
303.15 K, x1 = 0.6942 | 931.06 | 2.588
303.15 K, x1 = 0.7587 | 924.36 | 2.262
303.15 K, x1 = 0.8163 | 920.39 | 1.857
303.15 K, x1 = 0.8869 | 915.52 | 1.489
303.15 K, x1 = 0.9244 | 913.29 | 1.359
303.15 K, x1 = 0.9812 | 910.58 | 1.091
313.15 K, x1 = 0.0452 | 985.04 | 1.327
313.15 K, x1 = 0.0942 | 982.32 | 1.715
313.15 K, x1 = 0.1267 | 980.45 | 1.968
313.15 K, x1 = 0.1763 | 977.58 | 2.348
313.15 K, x1 = 0.2022 | 974.42 | 2.482
313.15 K, x1 = 0.2538 | 969.64 | 2.703
313.15 K, x1 = 0.2843 | 966.47 | 2.838
313.15 K, x1 = 0.3275 | 961.8 | 2.908
313.15 K, x1 = 0.3754 | 956.33 | 2.901
313.15 K, x1 = 0.4033 | 952.91 | 2.869
313.15 K, x1 = 0.4286 | 950.06 | 2.869
313.15 K, x1 = 0.4689 | 945.1 | 2.798
313.15 K, x1 = 0.4983 | 941.92 | 2.758
313.15 K, x1 = 0.5433 | 936.67 | 2.602
313.15 K, x1 = 0.5983 | 930.57 | 2.388
313.15 K, x1 = 0.6438 | 925.8 | 2.244
313.15 K, x1 = 0.6942 | 922.05 | 2.031
313.15 K, x1 = 0.7587 | 916.24 | 1.764
313.15 K, x1 = 0.8163 | 912.31 | 1.495
313.15 K, x1 = 0.8869 | 907.94 | 1.222
313.15 K, x1 = 0.9244 | 905.91 | 1.077
313.15 K, x1 = 0.9812 | 903.31 | 0.952
323.15 K, x1 = 0.0452 | 978.13 | 1.119
323.15 K, x1 = 0.0942 | 972.37 | 1.334
323.15 K, x1 = 0.1267 | 968.24 | 1.539
323.15 K, x1 = 0.1763 | 965.46 | 1.761
323.15 K, x1 = 0.2022 | 962.36 | 1.858
323.15 K, x1 = 0.2538 | 957.73 | 2.023
323.15 K, x1 = 0.2843 | 954.64 | 2.113
323.15 K, x1 = 0.3275 | 950.07 | 2.183
323.15 K, x1 = 0.3754 | 944.75 | 2.176
323.15 K, x1 = 0.4033 | 941.43 | 2.143
323.15 K, x1 = 0.4286 | 938.65 | 2.144
323.15 K, x1 = 0.4689 | 933.8 | 2.073
323.15 K, x1 = 0.4983 | 930.71 | 2.033
323.15 K, x1 = 0.5433 | 925.57 | 1.948
323.15 K, x1 = 0.5983 | 919.96 | 1.783
323.15 K, x1 = 0.6438 | 916.85 | 1.677
323.15 K, x1 = 0.6942 | 913.49 | 1.536
323.15 K, x1 = 0.7587 | 906.16 | 1.362
323.15 K, x1 = 0.8163 | 902.37 | 1.158
323.15 K, x1 = 0.8869 | 898.07 | 0.954
323.15 K, x1 = 0.9244 | 896.15 | 0.939
323.15 K, x1 = 0.9812 | 894.06 | 0.841
333.15 K, x1 = 0.0452 | 968.24 | 0.708
333.15 K, x1 = 0.0942 | 961.01 | 0.998
333.15 K, x1 = 0.1267 | 955.3 | 1.111
333.15 K, x1 = 0.1763 | 951.37 | 1.251
333.15 K, x1 = 0.2022 | – | 1.297
333.15 K, x1 = 0.2538 | 942.51 | 1.396
333.15 K, x1 = 0.2843 | 939.75 | 1.425
333.15 K, x1 = 0.3275 | 935.6 | 1.477
333.15 K, x1 = 0.3754 | 930.7 | 1.468
333.15 K, x1 = 0.4033 | 927.59 | 1.434
333.15 K, x1 = 0.4286 | 925 | 1.433
333.15 K, x1 = 0.4689 | 920.44 | 1.361
333.15 K, x1 = 0.4983 | 917.56 | 1.319
333.15 K, x1 = 0.5433 | 912.67 | 1.232
333.15 K, x1 = 0.5983 | 907.35 | 1.126
333.15 K, x1 = 0.6438 | 904.17 | 1.033
333.15 K, x1 = 0.6942 | 900.9 | 0.935
333.15 K, x1 = 0.7587 | 894.82 | 0.837
333.15 K, x1 = 0.8163 | 891.64 | 0.809
333.15 K, x1 = 0.8869 | 888.89 | 0.719
333.15 K, x1 = 0.9244 | 886.87 | 0.703
333.15 K, x1 = 0.9812 | 884.98 | 0.709
343.15 K, x1 = 0.0452 | 962.12 | 0.499
343.15 K, x1 = 0.0942 | 954.33 | 0.564
343.15 K, x1 = 0.1267 | 948.38 | 0.653
343.15 K, x1 = 0.1763 | 944.12 | 0.691
343.15 K, x1 = 0.2022 | 939.98 | 0.704
343.15 K, x1 = 0.2538 | 934.96 | 0.729
343.15 K, x1 = 0.2843 | 932.11 | 0.757
343.15 K, x1 = 0.3275 | 927.87 | 0.771
343.15 K, x1 = 0.3754 | 922.89 | 0.793
343.15 K, x1 = 0.4033 | 919.76 | 0.757
343.15 K, x1 = 0.4286 | 917.15 | 0.755
343.15 K, x1 = 0.4689 | 912.58 | 0.773
343.15 K, x1 = 0.4983 | 909.69 | 0.718
343.15 K, x1 = 0.5433 | 904.8 | 0.701
343.15 K, x1 = 0.5983 | 899.49 | 0.661
343.15 K, x1 = 0.6438 | 896.3 | 0.629
343.15 K, x1 = 0.6942 | 893.02 | 0.598
343.15 K, x1 = 0.7587 | 886.99 | 0.569
343.15 K, x1 = 0.8163 | 883.81 | 0.566
343.15 K, x1 = 0.8869 | 881.05 | 0.556
343.15 K, x1 = 0.9244 | 879.04 | 0.551
343.15 K, x1 = 0.9812 | 877.14 | 0.535
